In ChEMBL document CHEMBL1128189, “alpha-Hydroxy phosphinyl-based inhibitors of human renin” (J Med Chem, 1995):

Molecular target: T1, Renin (Homo sapiens, UniProt P00797)
T1 sequence (P00797 whole entry): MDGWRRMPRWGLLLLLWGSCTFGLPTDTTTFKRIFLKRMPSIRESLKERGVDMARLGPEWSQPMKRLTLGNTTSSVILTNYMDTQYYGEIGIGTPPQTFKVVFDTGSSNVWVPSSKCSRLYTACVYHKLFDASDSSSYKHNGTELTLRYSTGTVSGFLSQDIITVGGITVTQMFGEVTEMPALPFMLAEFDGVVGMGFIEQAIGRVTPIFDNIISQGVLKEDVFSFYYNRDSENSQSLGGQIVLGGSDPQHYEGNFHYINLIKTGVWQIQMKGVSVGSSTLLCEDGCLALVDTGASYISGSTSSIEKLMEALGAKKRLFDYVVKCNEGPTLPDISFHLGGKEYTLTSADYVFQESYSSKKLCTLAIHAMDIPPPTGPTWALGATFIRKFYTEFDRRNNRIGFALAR
Experiment: Evaluation of inhibitory activity against human renin

IC50 [nM]	SMILES
220	COP(=O)(OC)[C@H](O)[C@H](CC1CCCCC1)NC(=O)[C@H](Cc1cnc[nH]1)NC(=O)[C@H](Cc1ccccc1)NC(=O)C1CCCC1
27000	COP(=O)(O)[C@H](O)[C@H](CC1CCCCC1)NC(=O)[C@H](CC(C)C)NC(=O)[C@H](Cc1ccccc1)NC(=O)C1CCCC1
41	COP(=O)(OC)[C@H](O)[C@H](CC1CCCCC1)NC(=O)[C@H](Cc1cnc[nH]1)NC(=O)[C@H](Cc1ccccc1)NC(=O)N1CCOCC1
16	COP(=O)(OC)[C@H](O)[C@H](CC1CCCCC1)NC(=O)[C@H](CC(C)C)NC(=O)[C@H](Cc1ccccc1)NC(=O)C1CCCC1
31	COP(=O)(OC)[C@H](O)[C@H](CC1CCCCC1)NC(=O)[C@H](CC(C)C)NC(=O)[C@H](Cc1ccccc1)NC(=O)CCCCCN
5	CCOC(=O)[C@H](O)[C@H](CC1CCCCC1)NC(=O)[C@H](CC(C)C)NC(=O)[C@H](Cc1ccccc1)NC(=O)OC(C)(C)C
8.5	COP(=O)(OC)[C@H](O)[C@H](CC1CCCCC1)NC(=O)[C@H](CC(C)C)NC(=O)[C@H](Cc1ccccc1)NC(=O)N1CCOCC1

Molecular target: T1, Renin
Experiment: Evaluation of inhibitory activity against human renin. value in parentheses indicate no. of determinations

IC50 [nM]	SMILES
2400	CCP(=O)(OC)C(O)[C@H](CC1CCCCC1)NC(=O)[C@H](CC(C)C)NC(=O)[C@H](Cc1ccccc1)NC(=O)C1CCCC1 (stereo in doubt; 30)
5200	CCP(=O)(CC)[C@@H](O)[C@H](CC1CCCCC1)NC(=O)[C@H](CC(C)C)NC(=O)[C@H](Cc1ccccc1)NC(=O)C1CCCC1
44	CCP(=O)(OC)C(O)[C@H](CC1CCCCC1)NC(=O)[C@H](CC(C)C)NC(=O)[C@H](Cc1ccccc1)NC(=O)C1CCCC1 (stereo in doubt; 29)
210	CCP(=O)(OC)C(O)[C@H](CC1CCCCC1)NC(=O)[C@H](CC(C)C)NC(=O)[C@H](Cc1ccccc1)NC(=O)C1CCCC1 (stereo in doubt; 28)
400	CCP(=O)(CC)[C@H](O)[C@H](CC1CCCCC1)NC(=O)[C@H](CC(C)C)NC(=O)[C@H](Cc1ccccc1)NC(=O)C1CCCC1

Molecular target: T1, Renin
Experiment: Evaluation of inhibitory activity against human renin.

IC50 [nM]	SMILES
10	COP(=O)(OC)[C@H](O)[C@H](CC1CCCCC1)NC(=O)[C@H](CC(C)C)NC(=O)[C@H](Cc1ccccc1)NC(=O)OC(C)(C)C
38	CCOP(=O)(OCC)[C@H](O)[C@H](CC1CCCCC1)NC(=O)[C@H](CC(C)C)NC(=O)[C@H](Cc1ccccc1)NC(=O)C1CCCC1
41000	CCOP(=O)(OCC)[C@@H](O)[C@H](CC1CCCCC1)NC(=O)[C@H](CC(C)C)NC(=O)[C@H](Cc1ccccc1)NC(=O)OC(C)(C)C
29	CCOP(=O)(OCC)[C@H](O)[C@H](CC1CCCCC1)NC(=O)[C@H](CC(C)C)NC(=O)[C@H](Cc1ccccc1)NC(=O)OC(C)(C)C
